From patent publication US10253081B2, “Glucagon analogues” (Zealand Pharma A/S, priority 2012, dated 2019)
Values joined by “and” are separate entries in the source; they are usually repeats but may differ in a detail not shown here. Identical values can stand only once. *1 amine or outer side, *2 acyl side, *3 side chain or, on linkers, in order; H or OH if unused. Where a SMILES comes first, the peptide text is derived from it. Side-chain parts run from the residue outwards. [ ]: non-standard residue; d: D form. The star is where a group is joined. γGlu = O=C(O)[C@H](CCC(=O)[*:2])N[*:1]; Palmitoyl = CCCCCCCCCCCCCCCC(=O)*; Aib = CC(C)(N)C(=O)O

These compounds were tested against T1, endogenous glucagon receptor (Rattus norvegicus, UniProt P30082) (assay: Agonistic activity on endogenous glucagon receptor (glycogen synthesis rate in primary rat hepatocytes)). Settings: inhibition of glycogen synthesis rate, 3 hours, read-out: EC50 GLP-1R Rat hepat.
T1 construct: Agonistic activity of the test compounds on endogenous glucagon receptor; endogenous in cells; host or cells: primary rat hepatocytes
T1 sequence (P30082 27-485): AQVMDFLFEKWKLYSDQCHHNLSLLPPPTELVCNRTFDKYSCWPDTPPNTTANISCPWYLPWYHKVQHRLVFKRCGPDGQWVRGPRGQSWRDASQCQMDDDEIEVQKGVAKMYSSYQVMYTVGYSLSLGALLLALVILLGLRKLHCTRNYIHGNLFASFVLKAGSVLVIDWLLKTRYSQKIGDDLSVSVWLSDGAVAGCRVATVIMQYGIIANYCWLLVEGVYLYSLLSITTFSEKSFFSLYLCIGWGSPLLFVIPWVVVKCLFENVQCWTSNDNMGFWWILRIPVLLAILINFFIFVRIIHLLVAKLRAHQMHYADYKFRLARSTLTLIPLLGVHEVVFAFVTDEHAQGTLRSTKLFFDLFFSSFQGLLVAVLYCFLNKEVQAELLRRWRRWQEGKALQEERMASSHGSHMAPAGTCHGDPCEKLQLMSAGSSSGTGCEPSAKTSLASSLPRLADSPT
Type: cell-based
Method in brief: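 Primary rat hepatocytes (40,000 cells/well, cultured 24 h) incubated 3 h with compound in KRBH buffer with 0.1% BSA, 22.5 mM glucose and D-[U14C]glucose. 14C incorporated into precipitated glycogen counted, background-subtracted and expressed as % of 0.1% DMSO vehicle (100% CTL). pEC50 from cpm versus log concentration; agonism lowers glycogen synthesis.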
`CCCCCCCCCCCCCCCC(=O)N[C@@H](CCC(=O)NCCCC[C@H](NC(=O)[C@H](CO)NC(=O)[C@H](CC(=O)O)NC(=O)[C@H](CC(C)C)NC(=O)[C@H](Cc1ccc(O)cc1)NC(=O)[C@H](CCCCN)NC(=O)[C@H](CO)NC(=O)[C@H](Cc1ccc(O)cc1)NC(=O)[C@H](CC(=O)O)NC(=O)[C@H](CO)NC(=O)[C@@H](NC(=O)[C@H](Cc1ccccc1)NC(=O)[C@@H](NC(=O)CNC(=O)[C@H](CCC(N)=O)NC(=O)[C@H](CO)NC(=O)[C@@H](N)Cc1c[nH]cn1)[C@@H](C)O)[C@@H](C)O)C(=O)N[C@@H](C)C(=O)N[C@@H](C)C(=O)N[C@@H](Cc1c[nH]cn1)C(=O)N[C@@H](CC(=O)O)C(=O)N[C@@H](Cc1ccccc1)C(=O)N[C@H](C(=O)N[C@@H](CCC(=O)O)C(=O)N[C@@H](Cc1c[nH]c2ccccc12)C(=O)N[C@@H](CC(C)C)C(=O)N[C@@H](CC(C)C)C(=O)N[C@@H](CCCNC(=N)N)C(=O)N[C@@H](C)C(=O)O)C(C)C)C(=O)O` [Compound 3, H-HSQGTFTSDYSKYLDS-K(Hexadecanoyl-isoGlu)-AAHDFVEWLLRA-OH] (H-HSQGTFTSDYSKYLDSK([γGlu-Palmitoyl])AAHDFVEWLLRA-OH) showed an EC50 of 0.16 nM.
With `CCCCCCCCCCCCCCCC(=O)N[C@@H](CCC(=O)NCCCC[C@H](NC(=O)[C@H](CO)NC(=O)[C@H](CC(=O)O)NC(=O)[C@H](CC(C)C)NC(=O)[C@H](Cc1ccc(O)cc1)NC(=O)[C@H](CCCCN)NC(=O)[C@H](CO)NC(=O)[C@H](Cc1ccc(O)cc1)NC(=O)[C@H](CC(=O)O)NC(=O)[C@H](CO)NC(=O)[C@@H](NC(=O)[C@H](Cc1ccccc1)NC(=O)[C@@H](NC(=O)CNC(=O)[C@H](CCC(N)=O)NC(=O)C(C)(C)NC(=O)[C@@H](N)Cc1c[nH]cn1)[C@@H](C)O)[C@@H](C)O)C(=O)N[C@@H](C)C(=O)N[C@@H](C)C(=O)N[C@@H](Cc1c[nH]cn1)C(=O)N[C@@H](CC(=O)O)C(=O)N[C@@H](Cc1ccccc1)C(=O)N[C@H](C(=O)N[C@@H](CCC(=O)O)C(=O)N[C@@H](Cc1c[nH]c2ccccc12)C(=O)N[C@@H](CC(C)C)C(=O)N[C@@H](CC(C)C)C(=O)N[C@@H](CO)C(=O)O)C(C)C)C(=O)O` [Compound 1, H-H-Aib-QGTFTSDYSKYLDS-K(Hexadecanoyl-isoGlu)-AAHDFVEWLLS-OH] (H-H[Aib]QGTFTSDYSKYLDSK([γGlu-Palmitoyl])AAHDFVEWLLS-OH) the EC50 was 0.13 nM and 0.02 nM.
`CCCCCCCCCCCCCCCC(=O)N[C@@H](CCC(=O)NCCCC[C@H](NC(=O)[C@H](CO)NC(=O)[C@H](CC(=O)O)NC(=O)[C@H](CC(C)C)NC(=O)[C@H](Cc1ccc(O)cc1)NC(=O)[C@H](CCCCN)NC(=O)[C@H](CO)NC(=O)[C@H](Cc1ccc(O)cc1)NC(=O)[C@H](CC(=O)O)NC(=O)[C@H](CO)NC(=O)[C@@H](NC(=O)[C@H](Cc1ccccc1)NC(=O)[C@@H](NC(=O)CNC(=O)[C@H](CCC(N)=O)NC(=O)C(C)(C)NC(=O)[C@@H](N)Cc1c[nH]cn1)[C@@H](C)O)[C@@H](C)O)C(=O)N[C@@H](C)C(=O)N[C@@H](C)C(=O)N[C@@H](Cc1c[nH]cn1)C(=O)N[C@@H](CC(=O)O)C(=O)N[C@@H](Cc1ccccc1)C(=O)N[C@H](C(=O)N[C@@H](CCC(=O)O)C(=O)N[C@@H](Cc1c[nH]c2ccccc12)C(=O)N[C@@H](CC(C)C)C(=O)N[C@@H](CC(C)C)C(=O)N[C@@H](CO)C(=O)N[C@@H](C)C(=O)O)C(C)C)C(=O)O` [Compound 13, H-H-Aib-QGTFTSDYSKYLDS-K(Hexadecanoyl-isoGlu)-AAHDFVEWLLSA-OH] showed an EC50 of 0.67 nM.
Compound `CCCCCCCCCCCCCCCC(=O)N[C@@H](CCC(=O)NCCCC[C@H](NC(=O)[C@H](CCC(=O)O)NC(=O)[C@H](CC(=O)O)NC(=O)[C@H](CC(C)C)NC(=O)[C@H](Cc1ccc(O)cc1)NC(=O)[C@H](CCCCN)NC(=O)[C@H](CO)NC(=O)[C@H](Cc1ccc(O)cc1)NC(=O)[C@H](CC(=O)O)NC(=O)[C@H](CO)NC(=O)[C@@H](NC(=O)[C@H](Cc1ccccc1)NC(=O)[C@@H](NC(=O)CNC(=O)[C@H](CCC(N)=O)NC(=O)C(C)(C)NC(=O)[C@@H](N)Cc1c[nH]cn1)[C@@H](C)O)[C@@H](C)O)C(=O)N[C@@H](C)C(=O)N[C@@H](C)C(=O)N[C@@H](CCCCN)C(=O)N[C@@H](CC(=O)O)C(=O)N[C@@H](Cc1ccccc1)C(=O)N[C@H](C(=O)N[C@@H](CCC(=O)O)C(=O)N[C@@H](Cc1c[nH]c2ccccc12)C(=O)N[C@@H](CC(C)C)C(=O)N[C@@H](CC(C)C)C(=O)N[C@@H](CO)C(=O)N[C@@H](C)C(N)=O)[C@@H](C)CC)C(=O)O` [Compound 4, H-H-Aib-QGTFTSDYSKYLDE-K(Hexadecanoyl-isoGlu)-AAKDFIEWLLSA-NH2] (H-H[Aib]QGTFTSDYSKYLDEK([γGlu-Palmitoyl])AAKDFIEWLLSA-NH2) has an EC50 of 0.35 nM.
In the case of `CCCCCCCCCCCCCCCC(=O)N[C@@H](CCC(=O)NCCCC[C@H](NC(=O)[C@H](CCC(=O)O)NC(=O)[C@H](CC(=O)O)NC(=O)[C@H](CC(C)C)NC(=O)[C@H](Cc1ccc(O)cc1)NC(=O)[C@H](CCCCN)NC(=O)[C@H](CO)NC(=O)[C@H](Cc1ccc(O)cc1)NC(=O)[C@H](CC(=O)O)NC(=O)[C@H](CO)NC(=O)[C@@H](NC(=O)[C@H](Cc1ccccc1)NC(=O)[C@@H](NC(=O)CNC(=O)[C@H](CCC(N)=O)NC(=O)[C@H](CO)NC(=O)[C@@H](N)Cc1c[nH]cn1)[C@@H](C)O)[C@@H](C)O)C(=O)N[C@@H](C)C(=O)N[C@@H](C)C(=O)N[C@@H](Cc1c[nH]cn1)C(=O)N[C@@H](CCC(=O)O)C(=O)N[C@@H](Cc1ccccc1)C(=O)N[C@H](C(=O)N[C@@H](CCC(=O)O)C(=O)N[C@@H](Cc1c[nH]c2ccccc12)C(=O)N[C@@H](CC(C)C)C(=O)N[C@@H](CCC(=O)O)C(=O)N[C@@H](CO)C(=O)N[C@@H](C)C(N)=O)C(C)C)C(=O)O` [Compound 10, H-HSQGTFTSDYSKYLDE-K(Hexadecanoyl-isoGlu)-AAHEFVEWLESA-NH2] (H-HSQGTFTSDYSKYLDEK([γGlu-Palmitoyl])AAHEFVEWLESA-NH2), the EC50 is reported as 0.04 nM.
For `CCCCCCCCCCCCCCCC(=O)N[C@@H](CCC(=O)NCCCC[C@H](NC(=O)[C@H](CO)NC(=O)[C@H](CC(=O)O)NC(=O)[C@H](CC(C)C)NC(=O)[C@H](Cc1ccc(O)cc1)NC(=O)[C@H](CCCCN)NC(=O)[C@H](CO)NC(=O)[C@H](Cc1ccc(O)cc1)NC(=O)[C@H](CC(=O)O)NC(=O)[C@H](CO)NC(=O)[C@@H](NC(=O)[C@H](Cc1ccccc1)NC(=O)[C@@H](NC(=O)CNC(=O)[C@H](CCC(N)=O)NC(=O)[C@H](CO)NC(=O)[C@@H](N)Cc1c[nH]cn1)[C@@H](C)O)[C@@H](C)O)C(=O)N[C@@H](C)C(=O)N[C@@H](C)C(=O)N[C@@H](Cc1c[nH]cn1)C(=O)N[C@@H](CC(=O)O)C(=O)N[C@@H](Cc1ccccc1)C(=O)N[C@H](C(=O)N[C@@H](CCC(=O)O)C(=O)N[C@@H](Cc1c[nH]c2ccccc12)C(=O)N[C@@H](CC(C)C)C(=O)N[C@@H](CC(C)C)C(=O)N[C@@H](CO)C(N)=O)C(C)C)C(=O)O` [Compound 8, H-HSQGTFTSDYSKYLDS-K(Hexadecanoyl-isoGlu)-AAHDFVEWLLS-NH2] (H-HSQGTFTSDYSKYLDSK([γGlu-Palmitoyl])AAHDFVEWLLS-NH2), the EC50 was 1.1 nM.
`CCCCCCCCCCCCCCCC(=O)N[C@@H](CCC(=O)NCCCC[C@H](NC(=O)[C@H](CO)NC(=O)[C@H](CC(=O)O)NC(=O)[C@H](CC(C)C)NC(=O)[C@H](Cc1ccc(O)cc1)NC(=O)[C@H](CCCNC(=N)N)NC(=O)[C@H](CO)NC(=O)[C@H](Cc1ccc(O)cc1)NC(=O)[C@H](CC(=O)O)NC(=O)[C@H](CO)NC(=O)[C@@H](NC(=O)[C@H](Cc1ccccc1)NC(=O)[C@@H](NC(=O)CNC(=O)[C@H](CCC(N)=O)NC(=O)[C@H](CO)NC(=O)[C@@H](N)Cc1c[nH]cn1)[C@@H](C)O)[C@@H](C)O)C(=O)N[C@@H](C)C(=O)N[C@@H](C)C(=O)N[C@@H](CCC(=O)O)C(=O)N[C@@H](CC(=O)O)C(=O)N[C@@H](Cc1ccccc1)C(=O)N[C@H](C(=O)N[C@@H](CCC(=O)O)C(=O)N[C@@H](Cc1c[nH]c2ccccc12)C(=O)N[C@@H](CC(C)C)C(=O)N[C@@H](CC(C)C)C(=O)N[C@@H](CCCNC(=N)N)C(=O)N[C@@H](C)C(N)=O)C(C)C)C(=O)O` [Compound 6, H-HSQGTFTSDYSRYLDS-K(Hexadecanoyl-isoGlu)-AAEDFVEWLLRA-NH2] (H-HSQGTFTSDYSRYLDSK([γGlu-Palmitoyl])AAEDFVEWLLRA-NH2) gave an EC50 of 2.87 nM.
`CCCCCCCCCCCCCCCC(=O)N[C@@H](CCC(=O)NCCCC[C@H](NC(=O)[C@H](CO)NC(=O)[C@H](CC(=O)O)NC(=O)[C@H](CC(C)C)NC(=O)[C@H](Cc1ccc(O)cc1)NC(=O)[C@H](CCCCN)NC(=O)[C@H](CO)NC(=O)[C@H](Cc1ccc(O)cc1)NC(=O)[C@H](CC(=O)O)NC(=O)[C@H](CO)NC(=O)[C@@H](NC(=O)[C@H](Cc1ccccc1)NC(=O)[C@@H](NC(=O)CNC(=O)[C@H](CCC(N)=O)NC(=O)C(C)(C)NC(=O)[C@@H](N)Cc1c[nH]cn1)[C@@H](C)O)[C@@H](C)O)C(=O)N[C@@H](C)C(=O)N[C@@H](C)C(=O)N[C@@H](Cc1c[nH]cn1)C(=O)N[C@@H](CC(=O)O)C(=O)N[C@@H](Cc1ccccc1)C(=O)N[C@H](C(=O)N[C@@H](CCC(=O)O)C(=O)N[C@@H](Cc1c[nH]c2ccccc12)C(=O)N[C@@H](CC(C)C)C(=O)N[C@@H](CCC(=O)O)C(=O)N[C@@H](CO)C(=O)N[C@@H](C)C(N)=O)C(C)C)C(=O)O` [Compound 5, H-H-Aib-QGTFTSDYSKYLDS-K(Hexadecanoyl-isoGlu)-AAHDFVEWLESA-NH2] (H-H[Aib]QGTFTSDYSKYLDSK([γGlu-Palmitoyl])AAHDFVEWLESA-NH2) showed an EC50 of 0.03 nM.
